Assay results reported in patent US9738660B2, “Selective inhibitors for protein kinases and pharmaceutical composition and use thereof” (National Chiao Tung University, priority 2014, dated 2017).
Like-named read-outs stand apart in the source and are kept apart here.

Columns and labels:
Experiment in all cases: Kinase Profiler, residual kinase activity
Type in all cases: biochemical
Settings in all cases: read-out: percentage of the remaining kinase activity
[1] = molecular target: ALK (Homo sapiens, UniProt Q9UM73)
Source text: (§1) Kinase Profiler services provided by […]. (http://www.reactionbiology.com) were used to analyze the data of the 9 type-S protein kinase inhibitors against the 40 types of protein kinases.

[2] = molecular target: BTK (Homo sapiens, UniProt Q06187)
Source text: as §1

[3] = molecular target: DYRK1A (Homo sapiens, UniProt Q13627)
Source text: as §1

[4] = molecular target: T1, INSR (Homo sapiens, UniProt P06213)
T1 construct: purchased Research Biology Corp. (http://www.reactionbiology.com)
Source text: as §1

[5] = molecular target: T2, MAP2K1 (Homo sapiens, UniProt Q02750)
T2 construct: purchased Research Biology Corp. (http://www.reactionbiology.com)
Source text: as §1

[6] = molecular target: T3, MAP3K7 (Homo sapiens, UniProt O43318)
T3 construct: purchased Research Biology Corp. (http://www.reactionbiology.com)
T3 sequence (O43318 1-303 limits assumed): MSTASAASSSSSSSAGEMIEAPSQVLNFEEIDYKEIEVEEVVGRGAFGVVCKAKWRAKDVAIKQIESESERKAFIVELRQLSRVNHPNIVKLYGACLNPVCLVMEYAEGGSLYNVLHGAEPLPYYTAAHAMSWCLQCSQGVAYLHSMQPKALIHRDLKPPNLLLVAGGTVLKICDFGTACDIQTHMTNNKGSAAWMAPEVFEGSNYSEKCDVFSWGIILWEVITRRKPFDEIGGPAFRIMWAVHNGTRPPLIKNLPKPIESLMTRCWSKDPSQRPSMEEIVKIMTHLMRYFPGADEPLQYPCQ
Source text: as §1

[7] = molecular target: T4, MERTK (Homo sapiens, UniProt Q12866)
T4 sequence (Q12866 21-999): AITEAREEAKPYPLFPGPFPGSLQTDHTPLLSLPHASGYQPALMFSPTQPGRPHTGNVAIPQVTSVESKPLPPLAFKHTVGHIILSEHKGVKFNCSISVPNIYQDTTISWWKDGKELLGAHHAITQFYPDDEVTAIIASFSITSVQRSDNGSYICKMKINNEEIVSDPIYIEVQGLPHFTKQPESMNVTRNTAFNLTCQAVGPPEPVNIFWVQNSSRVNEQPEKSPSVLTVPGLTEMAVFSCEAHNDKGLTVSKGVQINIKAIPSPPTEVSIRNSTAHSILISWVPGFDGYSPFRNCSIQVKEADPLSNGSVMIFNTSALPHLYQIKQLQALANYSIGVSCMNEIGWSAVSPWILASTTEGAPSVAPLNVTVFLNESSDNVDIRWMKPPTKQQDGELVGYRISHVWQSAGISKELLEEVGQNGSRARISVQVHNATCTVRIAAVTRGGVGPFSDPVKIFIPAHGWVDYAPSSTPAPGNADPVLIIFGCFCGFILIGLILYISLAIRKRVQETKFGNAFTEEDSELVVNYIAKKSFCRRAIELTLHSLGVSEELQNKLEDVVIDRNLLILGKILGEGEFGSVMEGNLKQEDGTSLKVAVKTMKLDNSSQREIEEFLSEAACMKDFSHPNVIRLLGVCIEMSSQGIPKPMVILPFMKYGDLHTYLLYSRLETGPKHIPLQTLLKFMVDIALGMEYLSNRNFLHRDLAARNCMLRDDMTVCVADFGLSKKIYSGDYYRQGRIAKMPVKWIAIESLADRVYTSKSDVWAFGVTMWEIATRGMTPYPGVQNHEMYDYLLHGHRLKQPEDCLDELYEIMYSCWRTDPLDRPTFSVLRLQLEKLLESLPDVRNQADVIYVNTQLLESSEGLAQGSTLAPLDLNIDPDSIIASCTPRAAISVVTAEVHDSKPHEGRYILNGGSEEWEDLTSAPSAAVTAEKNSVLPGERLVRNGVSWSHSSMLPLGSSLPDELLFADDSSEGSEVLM
Source text: as §1

[8] = molecular target: T5, OXSR1 (Homo sapiens, UniProt O95747)
T5 construct: purchased Research Biology Corp. (http://www.reactionbiology.com)
Source text: as §1

[9] = molecular target: PIM1 (Homo sapiens, UniProt P11309)
Source text: as §1

[10] = molecular target: T6, RPS6KA5 (Homo sapiens, UniProt O75582)
T6 construct: purchased Research Biology Corp. (http://www.reactionbiology.com)
Source text: as §1

[11] = molecular target: T7, SRPK1 (Homo sapiens, UniProt Q96SB4)
T7 construct: purchased Research Biology Corp. (http://www.reactionbiology.com)
Source text: as §1

[12] = molecular target: T8, STK16 (Homo sapiens, UniProt O75716)
T8 construct: purchased Research Biology Corp. (http://www.reactionbiology.com)
Source text: as §1

[13] = molecular target: T9, STK4 (Homo sapiens, UniProt Q13043)
T9 construct: purchased Research Biology Corp. (http://www.reactionbiology.com)
T9 sequence (Q13043 1-487): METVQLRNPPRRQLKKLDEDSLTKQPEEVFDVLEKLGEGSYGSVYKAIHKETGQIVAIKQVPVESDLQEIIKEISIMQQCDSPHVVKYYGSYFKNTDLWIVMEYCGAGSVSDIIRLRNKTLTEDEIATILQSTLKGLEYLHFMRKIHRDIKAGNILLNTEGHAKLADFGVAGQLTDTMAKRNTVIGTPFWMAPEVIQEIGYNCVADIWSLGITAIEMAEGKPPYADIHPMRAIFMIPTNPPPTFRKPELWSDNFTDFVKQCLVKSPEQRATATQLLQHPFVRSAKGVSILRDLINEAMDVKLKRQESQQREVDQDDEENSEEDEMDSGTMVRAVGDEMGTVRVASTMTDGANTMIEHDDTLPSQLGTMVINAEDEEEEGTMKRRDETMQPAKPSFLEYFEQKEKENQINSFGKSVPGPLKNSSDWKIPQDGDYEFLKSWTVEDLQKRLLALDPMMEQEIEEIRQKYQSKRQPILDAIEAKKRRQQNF
Source text: as §1

T6 sequence (O75582 whole entry): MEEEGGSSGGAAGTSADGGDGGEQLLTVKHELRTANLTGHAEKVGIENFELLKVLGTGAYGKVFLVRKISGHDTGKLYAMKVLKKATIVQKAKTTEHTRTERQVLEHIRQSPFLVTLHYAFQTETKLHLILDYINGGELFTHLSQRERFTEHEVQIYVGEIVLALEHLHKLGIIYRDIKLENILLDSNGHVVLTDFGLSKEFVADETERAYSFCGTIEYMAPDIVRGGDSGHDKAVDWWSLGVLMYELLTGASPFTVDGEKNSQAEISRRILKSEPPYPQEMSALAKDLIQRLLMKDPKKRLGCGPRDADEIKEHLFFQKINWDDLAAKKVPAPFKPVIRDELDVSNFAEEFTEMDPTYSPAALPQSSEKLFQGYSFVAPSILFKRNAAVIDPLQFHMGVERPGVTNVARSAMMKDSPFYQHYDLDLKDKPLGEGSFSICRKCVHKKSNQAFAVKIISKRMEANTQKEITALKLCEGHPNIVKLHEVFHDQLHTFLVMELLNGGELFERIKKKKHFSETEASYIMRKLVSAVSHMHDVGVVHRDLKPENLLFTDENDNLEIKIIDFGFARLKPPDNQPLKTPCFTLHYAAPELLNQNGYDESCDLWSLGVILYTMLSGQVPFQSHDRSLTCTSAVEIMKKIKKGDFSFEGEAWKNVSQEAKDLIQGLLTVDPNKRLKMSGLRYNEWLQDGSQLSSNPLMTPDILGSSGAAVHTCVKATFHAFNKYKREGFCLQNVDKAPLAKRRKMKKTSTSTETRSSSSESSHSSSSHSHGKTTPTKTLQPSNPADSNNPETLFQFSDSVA
Sequence of BTK (Q06187 whole entry): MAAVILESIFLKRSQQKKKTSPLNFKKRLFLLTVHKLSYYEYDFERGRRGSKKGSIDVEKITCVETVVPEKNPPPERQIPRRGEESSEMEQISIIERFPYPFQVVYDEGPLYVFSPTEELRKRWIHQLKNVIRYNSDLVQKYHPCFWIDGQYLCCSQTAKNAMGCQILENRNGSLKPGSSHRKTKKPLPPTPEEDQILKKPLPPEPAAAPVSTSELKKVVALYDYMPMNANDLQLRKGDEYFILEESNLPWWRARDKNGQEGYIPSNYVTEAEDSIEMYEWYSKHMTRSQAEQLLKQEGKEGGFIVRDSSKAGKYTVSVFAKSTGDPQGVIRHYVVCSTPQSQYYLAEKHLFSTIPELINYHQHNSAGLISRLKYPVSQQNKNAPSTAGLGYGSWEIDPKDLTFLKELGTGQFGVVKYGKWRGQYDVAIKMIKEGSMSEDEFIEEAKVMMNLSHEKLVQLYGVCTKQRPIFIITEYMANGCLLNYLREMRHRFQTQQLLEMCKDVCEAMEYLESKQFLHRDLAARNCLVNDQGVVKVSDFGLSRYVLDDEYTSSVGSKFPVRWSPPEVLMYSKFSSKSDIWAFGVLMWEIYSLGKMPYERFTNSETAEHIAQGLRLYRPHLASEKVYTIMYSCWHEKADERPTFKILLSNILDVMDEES
Sequence of ALK (Q9UM73 19-1620): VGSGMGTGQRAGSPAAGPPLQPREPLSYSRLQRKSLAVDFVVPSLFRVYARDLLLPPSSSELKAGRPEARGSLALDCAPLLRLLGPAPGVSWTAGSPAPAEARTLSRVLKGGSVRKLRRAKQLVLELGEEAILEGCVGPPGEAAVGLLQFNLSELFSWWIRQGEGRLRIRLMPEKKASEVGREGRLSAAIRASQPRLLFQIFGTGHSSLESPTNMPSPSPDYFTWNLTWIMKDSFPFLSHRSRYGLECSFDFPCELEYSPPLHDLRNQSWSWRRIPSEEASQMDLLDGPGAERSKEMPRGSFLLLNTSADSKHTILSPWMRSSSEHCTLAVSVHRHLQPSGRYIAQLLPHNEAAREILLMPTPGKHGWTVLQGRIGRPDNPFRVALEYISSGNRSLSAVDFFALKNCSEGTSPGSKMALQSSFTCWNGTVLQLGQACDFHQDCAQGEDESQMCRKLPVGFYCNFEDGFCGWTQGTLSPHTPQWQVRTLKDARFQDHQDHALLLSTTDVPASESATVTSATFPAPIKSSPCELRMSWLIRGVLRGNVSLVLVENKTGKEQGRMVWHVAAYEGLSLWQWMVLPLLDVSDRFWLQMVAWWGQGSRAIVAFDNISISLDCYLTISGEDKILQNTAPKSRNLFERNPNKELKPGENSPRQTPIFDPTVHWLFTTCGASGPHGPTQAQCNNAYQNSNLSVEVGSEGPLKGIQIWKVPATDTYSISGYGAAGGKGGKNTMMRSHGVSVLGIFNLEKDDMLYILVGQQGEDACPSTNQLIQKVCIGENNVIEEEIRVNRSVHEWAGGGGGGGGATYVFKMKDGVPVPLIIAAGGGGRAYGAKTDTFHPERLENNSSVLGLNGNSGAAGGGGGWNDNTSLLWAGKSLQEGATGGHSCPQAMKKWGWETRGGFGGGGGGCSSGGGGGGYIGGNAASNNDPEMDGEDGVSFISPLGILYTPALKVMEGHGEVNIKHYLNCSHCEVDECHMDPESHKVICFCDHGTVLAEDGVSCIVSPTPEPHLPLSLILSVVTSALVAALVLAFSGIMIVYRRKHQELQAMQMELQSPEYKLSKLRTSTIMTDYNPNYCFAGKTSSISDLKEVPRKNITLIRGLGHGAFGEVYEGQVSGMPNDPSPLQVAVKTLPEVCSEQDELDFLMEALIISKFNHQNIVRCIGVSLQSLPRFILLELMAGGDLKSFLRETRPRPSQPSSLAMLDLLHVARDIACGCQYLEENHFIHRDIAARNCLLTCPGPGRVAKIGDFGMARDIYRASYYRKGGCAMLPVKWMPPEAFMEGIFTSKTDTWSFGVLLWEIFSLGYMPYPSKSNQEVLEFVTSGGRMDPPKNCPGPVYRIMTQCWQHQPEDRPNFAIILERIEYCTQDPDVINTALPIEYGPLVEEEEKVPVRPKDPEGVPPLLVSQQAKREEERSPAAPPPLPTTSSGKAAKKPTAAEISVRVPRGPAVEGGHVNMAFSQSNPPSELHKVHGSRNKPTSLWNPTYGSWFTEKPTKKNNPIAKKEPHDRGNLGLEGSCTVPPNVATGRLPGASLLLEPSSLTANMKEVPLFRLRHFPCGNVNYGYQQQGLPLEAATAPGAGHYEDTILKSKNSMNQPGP
T1 sequence (P06213 28-1382): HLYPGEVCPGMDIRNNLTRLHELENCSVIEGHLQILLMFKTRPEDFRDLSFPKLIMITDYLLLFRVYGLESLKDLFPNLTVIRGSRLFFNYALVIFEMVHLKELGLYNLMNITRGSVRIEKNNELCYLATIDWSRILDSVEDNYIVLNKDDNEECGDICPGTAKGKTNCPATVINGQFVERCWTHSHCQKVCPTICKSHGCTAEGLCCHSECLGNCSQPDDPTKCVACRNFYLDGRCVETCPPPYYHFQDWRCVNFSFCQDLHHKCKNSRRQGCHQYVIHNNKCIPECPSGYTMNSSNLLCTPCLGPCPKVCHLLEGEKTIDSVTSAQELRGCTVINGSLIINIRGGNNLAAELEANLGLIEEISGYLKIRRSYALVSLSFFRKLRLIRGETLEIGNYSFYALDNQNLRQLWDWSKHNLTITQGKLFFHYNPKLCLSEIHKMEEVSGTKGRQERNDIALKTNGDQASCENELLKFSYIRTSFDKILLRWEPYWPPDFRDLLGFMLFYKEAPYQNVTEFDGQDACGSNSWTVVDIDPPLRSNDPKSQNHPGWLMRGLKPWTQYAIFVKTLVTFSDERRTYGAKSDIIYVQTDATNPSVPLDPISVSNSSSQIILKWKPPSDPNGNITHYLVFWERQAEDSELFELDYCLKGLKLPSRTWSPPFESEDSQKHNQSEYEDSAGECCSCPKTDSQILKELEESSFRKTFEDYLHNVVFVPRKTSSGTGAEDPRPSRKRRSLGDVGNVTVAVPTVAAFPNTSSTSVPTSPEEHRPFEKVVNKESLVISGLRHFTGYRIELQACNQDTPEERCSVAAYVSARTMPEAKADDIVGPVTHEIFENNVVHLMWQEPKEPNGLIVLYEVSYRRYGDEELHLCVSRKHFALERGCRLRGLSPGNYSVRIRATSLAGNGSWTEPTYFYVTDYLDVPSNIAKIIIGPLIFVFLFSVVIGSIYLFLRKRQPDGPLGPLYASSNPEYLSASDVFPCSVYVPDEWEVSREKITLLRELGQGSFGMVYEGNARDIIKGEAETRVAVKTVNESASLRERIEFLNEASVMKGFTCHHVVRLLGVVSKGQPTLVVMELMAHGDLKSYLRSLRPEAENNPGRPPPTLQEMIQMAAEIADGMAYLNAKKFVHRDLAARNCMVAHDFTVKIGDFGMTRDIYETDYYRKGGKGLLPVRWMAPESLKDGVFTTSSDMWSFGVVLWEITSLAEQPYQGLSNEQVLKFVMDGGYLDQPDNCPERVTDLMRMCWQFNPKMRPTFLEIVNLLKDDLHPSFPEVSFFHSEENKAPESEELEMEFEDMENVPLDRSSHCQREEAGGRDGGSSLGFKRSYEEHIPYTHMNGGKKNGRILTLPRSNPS
T5 sequence (O95747 whole entry): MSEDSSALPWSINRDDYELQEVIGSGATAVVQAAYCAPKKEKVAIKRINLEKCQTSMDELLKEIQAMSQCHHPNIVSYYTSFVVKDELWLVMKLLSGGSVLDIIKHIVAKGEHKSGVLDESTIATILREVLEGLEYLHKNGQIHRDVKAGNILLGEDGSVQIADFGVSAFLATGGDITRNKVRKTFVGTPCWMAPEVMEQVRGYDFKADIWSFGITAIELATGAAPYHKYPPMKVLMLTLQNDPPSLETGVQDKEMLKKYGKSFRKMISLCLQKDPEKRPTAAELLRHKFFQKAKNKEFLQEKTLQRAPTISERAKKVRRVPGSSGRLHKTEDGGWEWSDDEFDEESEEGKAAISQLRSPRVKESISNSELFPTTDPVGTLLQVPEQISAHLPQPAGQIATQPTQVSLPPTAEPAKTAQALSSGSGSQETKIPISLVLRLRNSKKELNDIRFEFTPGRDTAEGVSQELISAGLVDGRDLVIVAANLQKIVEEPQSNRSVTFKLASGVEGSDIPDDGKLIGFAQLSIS

Compound | remaining activity at 0.5 µM ([1]; ALK, inhibitor at 500 nM) [%] | remaining activity at 0.5 µM ([2]; BTK, inhibitor at 500 nM) [%] | remaining activity at 0.5 µM ([3]; DYRK1A, inhibitor at 500 nM) [%] | remaining activity at 0.5 µM ([4]; INSR, inhibitor at 500 nM) [%] | remaining activity at 0.5 µM ([5]; MAP2K1, inhibitor at 500 nM) [%] | remaining activity at 0.5 µM ([6]; MAP3K7, inhibitor at 500 nM) [%] | remaining activity at 0.5 µM ([7]; MERTK, inhibitor at 500 nM) [%] | remaining activity at 0.5 µM ([8]; OXSR1, inhibitor at 500 nM) [%] | remaining activity at 0.5 µM ([9]; PIM1, inhibitor at 500 nM) [%] | remaining activity at 0.5 µM ([10]; RPS6KA5, inhibitor at 500 nM) [%] | remaining activity at 0.5 µM ([11]; SRPK1, inhibitor at 500 nM) [%] | remaining activity at 0.5 µM ([12]; STK16, inhibitor at 500 nM) [%] | remaining activity at 0.5 µM ([13]; STK4, inhibitor at 500 nM) [%] | further results
COC1C(N(C)C(=O)C(N)Cc2c[nH]cn2)CC2OC1(C)n1c3ccccc3c3c4c(c5c6ccccc6n2c5c31)C(=O)NC4 (stereo not drawn) [Compound 1] | 3.3 | 13.9 | 0.4 | 23.1 | 79.8 | 37.5 | 26.7 | 106 | 2.4 | 1.7 | 24.4 | 59 | 1.8 | –
COC1C(N(C)C(=O)C(N)CCC(=O)O)CC2OC1(C)n1c3ccccc3c3c4c(c5c6ccccc6n2c5c31)C(=O)NC4 (stereo not drawn) [Compound 7] | 4.7 | 11.9 | 0.6 | 32.8 | 74.1 | 27.8 | 40 | 100 | 2.5 | 1.8 | 38.9 | 51.6 | 1.9 | –
COC1C(N(C)CCOc2cccc([N+](=O)[O-])c2)CC2OC1(C)n1c3ccccc3c3c4c(c5c6ccccc6n2c5c31)C(=O)NC4 (stereo not drawn) [Compound 8] | – | – | – | – | – | – | – | – | – | – | – | – | – | remaining activity at 0.5 µM [1]: 19.5%; remaining activity at 0.5 µM [2]: 53.9%; remaining activity at 0.5 µM [3]: 25.3%; remaining activity at 0.5 µM [4]: 83.1%; remaining activity at 0.5 µM [5]: 72%; remaining activity at 0.5 µM [6]: 63.5%; remaining activity at 0.5 µM [7]: 63.1%; remaining activity at 0.5 µM [8]: 102%; remaining activity at 0.5 µM [9]: 24.6%; remaining activity at 0.5 µM [10]: 7.4%; remaining activity at 0.5 µM [11]: 78.3%; remaining activity at 0.5 µM [12]: 94%; remaining activity at 0.5 µM [13]: 2.7%
COC1C(N(C)Cc2ccc(-c3ccccc3)cc2)CC2OC1(C)n1c3ccccc3c3c4c(c5c6ccccc6n2c5c31)C(=O)NC4 (stereo not drawn) [Compound 9] | 17.6 | 55.8 | 18.5 | 79.1 | 66.1 | 69.4 | 52.3 | 94.7 | 21.8 | 5.2 | 78.5 | 103 | 1.5 | –
CN[C@@H]1C[C@H]2O[C@@](C)([C@@H]1OC)n1c3ccccc3c3c4c(c5c6ccccc6n2c5c31)C(=O)NC4 [STU, staurosporine, reference compound] | – | – | – | – | 11.5 | – | – | – | – | – | 17.7 | – | – | remaining activity at 0.5 µM [1]: -0.3%; remaining activity at 0.5 µM [4]: 16.2%; remaining activity at 0.5 µM [7]: 1.1%; remaining activity at 0.5 µM [8]: 15.8%; remaining activity at 0.5 µM [9]: 0.6%; remaining activity at 0.5 µM [10]: 1.1%; remaining activity at 0.5 µM [12]: 52.5%; remaining activity at 0.5 µM [13]: 5.5%

The next lines start with results.

remaining activity at 0.5 µM ([1]; ALK, inhibitor at 500 nM) [%] | remaining activity at 0.5 µM ([2]; BTK, inhibitor at 500 nM) [%] | remaining activity at 0.5 µM ([3]; DYRK1A, inhibitor at 500 nM) [%] | remaining activity at 0.5 µM ([4]; INSR, inhibitor at 500 nM) [%] | remaining activity at 0.5 µM ([5]; MAP2K1, inhibitor at 500 nM) [%] | remaining activity at 0.5 µM ([6]; MAP3K7, inhibitor at 500 nM) [%] | remaining activity at 0.5 µM ([7]; MERTK, inhibitor at 500 nM) [%] | remaining activity at 0.5 µM ([8]; OXSR1, inhibitor at 500 nM) [%] | remaining activity at 0.5 µM ([9]; PIM1, inhibitor at 500 nM) [%] | remaining activity at 0.5 µM ([10]; RPS6KA5, inhibitor at 500 nM) [%] | remaining activity at 0.5 µM ([11]; SRPK1, inhibitor at 500 nM) [%] | remaining activity at 0.5 µM ([12]; STK16, inhibitor at 500 nM) [%] | remaining activity at 0.5 µM ([13]; STK4, inhibitor at 500 nM) [%] | Compound | further results
85.4 | 90.6 | 88.6 | 97.9 | 105 | 103 | 96.8 | 116 | 88.9 | 61.4 | 95.7 | 105 | 72.8 | COC1C(N(C)C(=O)C(N)Cc2cn(C(=O)OC(C)(C)C)c3ccccc23)CC2OC1(C)n1c3ccccc3c3c4c(c5c6ccccc6n2c5c31)C(=O)NC4 (stereo not drawn) [Compound 2] | –
56.7 | 65.4 | 17.8 | 84.8 | 110 | 98.6 | 88.1 | 110 | 44.2 | 1.6 | 85 | 99.8 | 12 | COC1C(N(C)C(=O)C(N)Cc2ccc(OC(C)(C)C)cc2)CC2OC1(C)n1c3ccccc3c3c4c(c5c6ccccc6n2c5c31)C(=O)NC4 (stereo not drawn) [Compound 4] | –
29.1 | 37.8 | 0.6 | 69.1 | 103 | 70.7 | 69.2 | 109 | 3 | 2.4 | 61.1 | 86.7 | 5.5 | COC1C(N(C)C(=O)C(N)Cc2ccc(O)cc2)CC2OC1(C)n1c3ccccc3c3c4c(c5c6ccccc6n2c5c31)C(=O)NC4 (stereo not drawn) [Compound 5] | –
44.7 | 43.6 | 13.8 | 72.3 | 101 | 84.2 | 85.2 | 111 | 43 | 3.3 | 65.3 | 94 | 6 | COC1C(N(C)C(=O)C(N)CCC(=O)OC(C)(C)C)CC2OC1(C)n1c3ccccc3c3c4c(c5c6ccccc6n2c5c31)C(=O)NC4 (stereo not drawn) [Compound 6] | –
